From PMC11033320, “Activation of p53 signaling and regression of breast and prostate carcinoma cells by spirooxindole-benzimidazole small molecules” (Frontiers in Pharmacology, 2024)

Experiments:
[1] = MTT cytotoxicity to normal human lung fibroblast Wi-38 cell line; format: cell-based; conditions: Wi-38 normal lung fibroblast cells, mean ± SEM, read-out: percentage of Wi-38 viability
K-562 = assay: NCI anticancer screening, Leukemia K-562; format: cell-based; conditions: Homo sapiens, K562; K-562, 10 μM; read-out: % Growth Inhibition (GI %)
How it was run: (§1)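 NCI DTP, standard 60-line human tumor screen (organic compounds).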

MOLT-4 = assay: NCI anticancer screening, Leukemia MOLT-4; format: cell-based; conditions: Homo sapiens; MOLT-4, 10 μM; read-out: % Growth Inhibition (GI %)
How it was run: as §1

RPMI-8226 = assay: NCI anticancer screening, Leukemia RPMI-8226; format: cell-based; conditions: Homo sapiens; RPMI-8226, 10 μM; read-out: % Growth Inhibition (GI %)
How it was run: as §1

SR = assay: NCI anticancer screening, Leukemia SR; format: cell-based; conditions: Homo sapiens, read-out: % Growth Inhibition (GI %)
How it was run: as §1

A549/ATCC = assay: NCI anticancer screening, Non-Small Cell Lung Cancer A549/ATCC; format: cell-based; conditions: Homo sapiens, read-out: % Growth Inhibition (GI %)
How it was run: as §1

NCI-H23 = assay: NCI anticancer screening, Non-Small Cell Lung Cancer NCI-H23; format: cell-based; conditions: Homo sapiens; NCI-H23, 10 μM; read-out: % Growth Inhibition (GI %)
How it was run: as §1

NCI-H322M = assay: NCI anticancer screening, Non-Small Cell Lung Cancer NCI-H322M; format: cell-based; conditions: Homo sapiens, read-out: % Growth Inhibition (GI %)
How it was run: as §1

NCI-H460 = assay: NCI anticancer screening, Non-Small Cell Lung Cancer NCI-H460; format: cell-based; conditions: Homo sapiens; NCI-H460, 10 μM; read-out: % Growth Inhibition (GI %)
How it was run: as §1

NCI-H522 = assay: NCI anticancer screening, Non-Small Cell Lung Cancer NCI-H522; format: cell-based; conditions: Homo sapiens; NCI-H522, 10 μM; read-out: % Growth Inhibition (GI %)
How it was run: as §1

HCC-2998 = assay: NCI anticancer screening, Colon Cancer HCC-2998; format: cell-based; conditions: Homo sapiens; HCC-2998, 10 μM; read-out: % Growth Inhibition (GI %)
How it was run: as §1

HCT-15 = assay: NCI anticancer screening, Colon Cancer HCT-15; format: cell-based; conditions: Homo sapiens; HCT-15, 10 μM; read-out: % Growth Inhibition (GI %)
How it was run: as §1

HT29 = assay: NCI anticancer screening, Colon Cancer HT29; format: cell-based; conditions: Homo sapiens, HT-29; HT29, 10 μM; read-out: % Growth Inhibition (GI %)
How it was run: as §1

SF-539 = assay: NCI anticancer screening, CNS Cancer SF-539; format: cell-based; conditions: Homo sapiens; SF-539, 10 μM; read-out: % Growth Inhibition (GI %)
How it was run: as §1

LOX IMVI = assay: NCI anticancer screening, Melanoma LOX IMVI; format: cell-based; conditions: Homo sapiens, read-out: % Growth Inhibition (GI %)
How it was run: as §1

MALME-3M = assay: NCI anticancer screening, Melanoma MALME-3M; format: cell-based; conditions: Homo sapiens, read-out: % Growth Inhibition (GI %)
How it was run: as §1

M14 = assay: NCI anticancer screening, Melanoma M14; format: cell-based; conditions: Homo sapiens; M14, 10 μM; read-out: % Growth Inhibition (GI %)
How it was run: as §1

SK-MEL-2 = assay: NCI anticancer screening, Melanoma SK-MEL-2; format: cell-based; conditions: Homo sapiens; SK-MEL-2, 10 μM; read-out: % Growth Inhibition (GI %)
How it was run: as §1

SK-MEL-28 = assay: NCI anticancer screening, Melanoma SK-MEL-28; format: cell-based; conditions: Homo sapiens; SK-MEL-28, 10 μM; read-out: % Growth Inhibition (GI %)
How it was run: as §1

UACC-257 = assay: NCI anticancer screening, Melanoma UACC-257; format: cell-based; conditions: Homo sapiens; UACC-257, 10 μM; read-out: % Growth Inhibition (GI %)
How it was run: as §1

UACC-62 = assay: NCI anticancer screening, Melanoma UACC-62; format: cell-based; conditions: Homo sapiens; UACC-62, 10 μM; read-out: % Growth Inhibition (GI %)
How it was run: as §1

IGROV1 = assay: NCI anticancer screening, Ovarian Cancer IGROV1; format: cell-based; conditions: Homo sapiens, IGROV-1; IGROV1, 10 μM; read-out: % Growth Inhibition (GI %)
How it was run: as §1

OVCAR-3 = assay: NCI anticancer screening, Ovarian Cancer OVCAR-3; format: cell-based; conditions: Homo sapiens; OVCAR-3, 10 μM; read-out: % Growth Inhibition (GI %)
How it was run: as §1

OVCAR-4 = assay: NCI anticancer screening, Ovarian Cancer OVCAR-4; format: cell-based; conditions: Homo sapiens; OVCAR-4, 10 μM; read-out: % Growth Inhibition (GI %)
How it was run: as §1

OVCAR-5 = assay: NCI anticancer screening, Ovarian Cancer OVCAR-5; format: cell-based; conditions: Homo sapiens; OVCAR-5, 10 μM; read-out: % Growth Inhibition (GI %)
How it was run: as §1

ACHN = assay: NCI anticancer screening, Renal Cancer ACHN; format: cell-based; conditions: Homo sapiens, read-out: % Growth Inhibition (GI %)
How it was run: as §1

CAKI-1 = assay: NCI anticancer screening, Renal Cancer CAKI-1; format: cell-based; conditions: Homo sapiens; CAKI-1, 10 μM; read-out: % Growth Inhibition (GI %)
How it was run: as §1

UO-31 = assay: NCI anticancer screening, Renal Cancer UO-31; format: cell-based; conditions: Homo sapiens; UO-31, 10 μM; read-out: % Growth Inhibition (GI %)
How it was run: as §1

MCF7 = assay: NCI anticancer screening, Breast Cancer MCF7; format: cell-based; conditions: Homo sapiens; MCF7, 10 μM; read-out: % Growth Inhibition (GI %)
How it was run: as §1

HS 578T = assay: NCI anticancer screening, Breast Cancer HS 578T; format: cell-based; conditions: Homo sapiens, read-out: % Growth Inhibition (GI %)
How it was run: as §1

BT-549 = assay: NCI anticancer screening, Breast Cancer BT-549; format: cell-based; conditions: Homo sapiens; BT-549, 10 μM; read-out: % Growth Inhibition (GI %)
How it was run: as §1

T-47D = assay: NCI anticancer screening, Breast Cancer T-47D; format: cell-based; conditions: Homo sapiens, T47D, read-out: % Growth Inhibition (GI %)
How it was run: as §1

MDA-MB-468 = assay: NCI anticancer screening, Breast Cancer MDA-MB-468; format: cell-based; conditions: Homo sapiens, read-out: % Growth Inhibition (GI %)
How it was run: as §1

Structure (SMILES) | viability at 72 h, 5 µM [1] [%] | inhibition at 10 µM (K-562) [%] | inhibition at 10 µM (MOLT-4) [%] | inhibition at 10 µM (RPMI-8226) [%] | inhibition at 10 µM (SR) [%] | inhibition at 10 µM (A549/ATCC) [%] | inhibition at 10 µM (NCI-H23) [%] | inhibition at 10 µM (NCI-H322M) [%] | inhibition at 10 µM (NCI-H460) [%] | inhibition at 10 µM (NCI-H522) [%] | inhibition at 10 µM (HCC-2998) [%] | inhibition at 10 µM (HCT-15) [%] | inhibition at 10 µM (HT29) [%] | inhibition at 10 µM (SF-539) [%] | inhibition at 10 µM (LOX IMVI) [%] | inhibition at 10 µM (MALME-3M) [%] | inhibition at 10 µM (M14) [%] | inhibition at 10 µM (SK-MEL-2) [%] | inhibition at 10 µM (SK-MEL-28) [%] | inhibition at 10 µM (UACC-257) [%] | other results
O=C(c1nc2ccccc2[nH]1)[C@H]1[C@H](c2cccc(O)c2)C2CSCN2[C@]12C(=O)Nc1ccccc12 (stereo partly drawn) [Compound 6h, (3S,6′R)-6'-(1H-Benzo [d]imidazole-2-carbonyl)-7'-(3-hydroxyphenyl)-3′,6′,7′,7a′-tetrahydro-1′H-spiro [indoline-3.5′-pyrrolo [1,2-c]thiazol]-2-one] | 51 ± 1.83 | 92.5 | 91.2 | 82.4 | 79.1 | 95.4 | 99.3 | 93.5 | 94.8 | 83.9 | 101 | 103 | 104 | 90 | 84.3 | 96.8 | 97.3 | 102 | 95.3 | 91.9 | inhibition at 10 µM (UACC-62): 80%; inhibition at 10 µM (IGROV1): 87.9%; inhibition at 10 µM (OVCAR-3): 97.2%; inhibition at 10 µM (OVCAR-4): 82.1%; inhibition at 10 µM (OVCAR-5): 92.9%; inhibition at 10 µM (ACHN): 92.8%; inhibition at 10 µM (CAKI-1): 84.1%; inhibition at 10 µM (UO-31): 60.6%; inhibition at 10 µM (MCF7): 92.8%; inhibition at 10 µM (HS 578T): 80.4%; inhibition at 10 µM (BT-549): 107%; inhibition at 10 µM (T-47D): 76.3%; inhibition at 10 µM (MDA-MB-468): 104%; melting point: 205 to 207 °C
O=C(c1nc2ccccc2[nH]1)[C@H]1[C@H](c2ccco2)C2CSCN2[C@]12C(=O)Nc1ccccc12 (stereo partly drawn) [Compound 6n, (3S,6′R)-6'-(1H-Benzo [d]imidazole-2-carbonyl)-7'-(furan-2-yl)-3′,6′,7′,7a′-tetrahydro-1′H-spiro [indoline-3.5′-pyrrolo [1,2-c]thiazol]-2-one] | 46.2 ± 1.47 | 89.8 | 96.8 | 101 | 86.8 | 102 | 92.9 | 101 | 102 | 99.7 | 104 | 105 | 115 | 96.4 | 91.7 | 102 | 101 | 124 | 107 | 116 | inhibition at 10 µM (UACC-62): 90.6%; inhibition at 10 µM (IGROV1): 92.4%; inhibition at 10 µM (OVCAR-3): 110%; inhibition at 10 µM (OVCAR-4): 99.2%; inhibition at 10 µM (OVCAR-5): 97.2%; inhibition at 10 µM (ACHN): 93.7%; inhibition at 10 µM (CAKI-1): 88.5%; inhibition at 10 µM (UO-31): 61.7%; inhibition at 10 µM (MCF7): 100%; inhibition at 10 µM (HS 578T): 91.3%; inhibition at 10 µM (BT-549): 110%; inhibition at 10 µM (T-47D): 84.8%; inhibition at 10 µM (MDA-MB-468): 102%; melting point: 240 to 242 °C
